Among the data in patent publication US10189841B2, “Purinones as ubiquitin-specific protease 1 inhibitors” (Forma Therapeutics, Inc., priority 2015, dated 2019) are IC50 values, retold here.

Chain of USP1 (construct USP1 (I-785, GG670, 671AA)/UAF1 (I-677)-Flag) (O94782 whole entry G670A/G671A): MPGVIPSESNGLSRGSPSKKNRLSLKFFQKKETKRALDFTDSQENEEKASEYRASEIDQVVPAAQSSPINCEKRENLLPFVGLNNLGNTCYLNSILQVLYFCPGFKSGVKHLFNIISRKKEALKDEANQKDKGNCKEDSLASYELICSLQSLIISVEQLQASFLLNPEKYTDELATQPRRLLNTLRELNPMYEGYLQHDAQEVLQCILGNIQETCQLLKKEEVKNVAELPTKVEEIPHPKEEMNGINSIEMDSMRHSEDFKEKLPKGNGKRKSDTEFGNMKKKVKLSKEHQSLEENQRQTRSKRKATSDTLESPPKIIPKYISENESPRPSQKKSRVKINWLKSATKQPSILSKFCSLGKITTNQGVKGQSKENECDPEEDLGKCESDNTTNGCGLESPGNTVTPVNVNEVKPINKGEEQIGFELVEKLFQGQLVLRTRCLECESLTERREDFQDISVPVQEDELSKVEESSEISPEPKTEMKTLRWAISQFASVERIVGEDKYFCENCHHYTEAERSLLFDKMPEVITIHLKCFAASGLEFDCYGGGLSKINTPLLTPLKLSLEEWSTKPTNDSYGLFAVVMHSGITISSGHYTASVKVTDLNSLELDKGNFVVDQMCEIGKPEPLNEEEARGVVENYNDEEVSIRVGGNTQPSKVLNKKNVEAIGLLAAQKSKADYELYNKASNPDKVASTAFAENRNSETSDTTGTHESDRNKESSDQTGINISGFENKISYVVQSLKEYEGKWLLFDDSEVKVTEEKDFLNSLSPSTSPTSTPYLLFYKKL
Chain of USP1 (construct USP1 (I-785, GG670, 671AA)/UAF1 (I-677)-Flag) (Q8TAF3 whole entry partner): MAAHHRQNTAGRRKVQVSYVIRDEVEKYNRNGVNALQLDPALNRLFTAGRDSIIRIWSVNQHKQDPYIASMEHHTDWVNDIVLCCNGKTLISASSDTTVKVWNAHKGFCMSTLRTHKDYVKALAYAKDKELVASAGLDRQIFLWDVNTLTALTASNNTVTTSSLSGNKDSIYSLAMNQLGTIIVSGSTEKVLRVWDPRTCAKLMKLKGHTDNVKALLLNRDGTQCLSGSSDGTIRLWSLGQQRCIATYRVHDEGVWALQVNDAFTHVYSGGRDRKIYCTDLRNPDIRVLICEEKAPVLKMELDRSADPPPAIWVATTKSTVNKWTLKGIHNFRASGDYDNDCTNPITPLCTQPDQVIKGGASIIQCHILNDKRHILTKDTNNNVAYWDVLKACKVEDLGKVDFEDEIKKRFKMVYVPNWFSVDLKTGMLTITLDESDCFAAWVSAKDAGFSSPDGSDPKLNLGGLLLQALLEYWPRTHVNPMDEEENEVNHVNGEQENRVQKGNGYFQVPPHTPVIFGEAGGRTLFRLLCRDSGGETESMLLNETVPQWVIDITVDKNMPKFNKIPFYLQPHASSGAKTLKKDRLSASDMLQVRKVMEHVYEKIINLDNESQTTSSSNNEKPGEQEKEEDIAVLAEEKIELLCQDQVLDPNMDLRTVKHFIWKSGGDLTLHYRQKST

The target in this assay is USP1 (construct USP1 (I-785, GG670, 671AA)/UAF1 (I-677)-Flag) (Homo sapiens (Human), UniProt O94782, G670A/G671A). The experiment in a line: Ubiquitin-Rhodamine 110 assay for USP1 activity. The format is biochemical. Conditions: USP1/UAF1 25 pM, Ub-Rh110 25 nM, 30 min preincubation. A digest of the protocol:
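Ub-Rh110 (25 nM, ≪Km) cleavage read at ex 485/em 535 in Tris pH 8.0, CaCl2, GSH, Prionex, Triton X-100. The screen used 10 µM compound, 100 pM USP1/UAF1 and 45 min at RT.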
The term IC50 denotes the concentration needed to halve the response being measured. A high value points to lower potency. With `CC(C)c1ccccc1-c1ncc2[nH]c(=O)n([C@@H](C)c3ccc(-c4nc(C(F)(F)F)cn4C)cc3)c2n1` [Compound I-215, (S)-2-(2-isopropylphenyl)-9-(1-(4-(1-methyl-4-(trifluoromethyl)-1H-imidazol-2-yl)phenyl)ethyl)-7,9-dihydro-8H-purin-8-one], the IC50 is below 50 nM.

`CC(C)c1ccccc1-c1ncc2[nH]c(=O)n(Cc3ccc(-n4ccc(N5CCN(C)CC5)n4)cc3)c2n1` [Compound I-173, 2-(2-isopropylphenyl)-9-(4-(3-(4-methylpiperazin-1-yl)-1H-pyrazol-1-yl)benzyl)-7,9-dihydro-8H-purin-8-one]: the IC50 was below 50 nM.

Compound `CC(C)Nc1ncccc1-c1ncc2[nH]c(=O)n(Cc3ccc(-c4nc(C(F)(F)F)cn4C)cc3)c2n1` [Compound I-313, 2-(2-(isopropylamino)pyridin-3-yl)-9-(4-(1-methyl-4-(trifluoromethyl)-1H-imidazol-2-yl)benzyl)-7,9-dihydro-8H-purin-8-one] returned a concentration for half-maximal inhibition (IC50) below 50 nM.

For the compound `CC(C)c1ncccc1-c1ncc2c(n1)n(Cc1ccc(-c3nc(C(F)(F)F)cn3C)c(F)c1)c(=O)n2C` [Compound I-126, 9-(3-fluoro-4-(1-methyl-4-(trifluoromethyl)-1H-imidazol-2-yl)benzyl)-2-(2-isopropylpyridin-3-yl)-7-methyl-7,9-dihydro-8H-purin-8-one], the IC50 was below 50 nM.
